Patent US20260088132A1, “CHEMICAL PAINTING” (The Trustees of Columbia University in the City of New York, priority 2023, published 2026)
Counter-ions that a name gives are not always drawn.

How the values were obtained:
Format in all cases: cell-based, human
[1] = system: MDA-MB-231 cells; assay: Novelty detection of drug MoA on single-cell Chemical Painting data (LDA, Mahalanobis distance, isolation forest); settings: test compounds; for Prediction: MoA predicted as known class or novel; for Mean score: dynamic range [1, −1], below 0.1 detected as novel; for Outlier %: single-cell data predicted as outliers (novel)
From the text: We specifically designed an algorithm for Chemical Painting to identify drugs with novel MoAs, using the dataset and model in drug MoA prediction as an annotated reference. In this algorithm, the first step is to calculate the Mahalanobis distance between single-cell data from test compound and each reference class in the trained LDA model. The class with the minimum distance represents the known drug closest to the test compound. Next, isolation forest, is introduced to determine whether the test compound is novel to the selected known drug class. The prediction output in this step is 1 as inliers (known) and −1 as outliers (novel) for each single-cell data from the test compound. […] Test compound with a mean prediction score below the threshold value is detected as novel.
(§1) Sample preparation for drug-treated cells with labeling. MDA-MB-231 cells were seeded on clean CaF2 substrates with 5×10^4 cells per well in cell culture media (DMEM, 10% FBS, 1% penicillin) overnight. Then the culture media was replaced by ^13C-amino acids DMEM with 50 μM azido-palmitic acid, 50 μM d34 oleic acid, either single drug at its IC50 concentration or drug combinations at chosen concentrations. Drugs were prepared in 100% DMSO and diluted to 0.1% DMSO in labeling media. For the control group, only cell labeling media with 0.1% DMSO was added (without any drugs). Cells were treated for 48 hrs. After that, cells were fixed by 4% PFA at room temperature for 15 min and washed three times with PBS buffer and five times with dd-H2O. The samples were then air-dried before imaging.
(§2) FTIR imaging. Agilent Cary 620 Imaging FTIR equipped with an Agilent 670-IR spectrometer and 128×128-pixels FPA mercury cadmium telluride (MCT) detector was used in the transmission mode. A background spectrum was collected on a clean CaF2 substrate using 128 scans at 8 cm-1 spectral resolution. Cell spectra were recorded using 64-128 scans at 8 cm-1 spectral resolution. A ×25 IR objective (pixel size, 3.3 um, 0.81 numerical aperture (NA)) was used for cell imaging.
Machine learning. The tests of all the machine learning classifiers were performed using Python (Scikit-learn). Specifically, single-cell data was split into 70% training and 30% testing with labels corresponding to drug MoAs. The hyper-parameters of each classifier were carefully tuned using RandomizedSearchCv in Scikit-learn. The performances of these classifiers were evaluated in the testing dataset using accuracy as the main metric. To test the performance of classifiers on batch effects, single-cell data collected from different batches were loaded as another testing dataset. For feature importances of LDA classifier, permutation feature importance (Scikit-learn) was used. The intrinsic feature importance values from random forest classifier were also extracted.
Novelty detection algorithm. In the first step, the Mahalanobis distances between the test compound and each reference class in the annotated dataset were calculated by home-built codes in python. Drug class with minimum distance was selected. Next, isolation forest, which is available in Python, was imported to predict whether single-cell data from the test compound is known (inliers) or novel (outliers) to the selected drug class. The mean of the prediction results from single-cell data is reported as mean prediction score.

[2] = system: MDA-MB-231 cells; assay: Chemical Painting: single-cell metabolic responses by FTIR imaging with three IR-active vibrational probes; settings: drug at its IC50 concentration, 48 hrs, compared with control
Protocol: The first step is to add the three vibrational probes and the tested drug at its IC50 concentration to the cell culture media and co-cultured for 48 hrs. After that, cells are fixed and air-dried. Then Fourier transformed infrared (FTIR) imaging, a modality of MIR imaging, was performed to collect the full spectral data of cells. The collection speed is around 2 cells/second for human cancer cells with sufficient co-scans (˜64 scans). In the following data analysis, quality test, baseline correction and data normalization were included for data preprocessing (Methods). Next, single-cell segmentation was performed with open-source software CellProfiler to generate masks. These masks can be further used to extract single-cell IR spectrum from the MIR imaging data, forming the single-cell biochemical profile. We then introduced a series of analytical methods for the downstream analysis, including machine learning, novelty detection and statistical methods to map cell phenotypes and identify drug MoAs. Overall, the workflow of Chemical Painting is straightforward in experimental operations and effected in single-cell data analysis, which laid the foundation for this method to reveal valuable insights toward phenotypic profiling and potential drug discovery.
Systematic sensitivity and generalizability evaluation of Chemical Painting toward a broad range of drugs: It remains unknown whether our method has sufficient sensitivity to differentially discriminate cell responses to different drugs. To evaluate its sensitivity we tested 13 drugs belonging to 9 different drug MoAs. These drugs can be separated into two main panels: one consists of drugs that inhibit general metabolism; another one contains drugs targeting specific proteins or interfering with particular metabolic pathways. The single-cell metabolic responses toward different drug treatment were visualized in the 3D scatter plots where x-axis represents saturated FA metabolism (azido-PA/CH2), y-axis represents unsaturated FA metabolism (d34OA/CH2), and z-axis represents protein synthesis (^13C amide I/(^13C amide I+^12C amide I)). The use of ratios is meant for more accurate quantification of metabolic activities. Each dot represents the metabolic responses of an individual cell in the plots.
as §1, §2
Data preprocessing. […]

[3] = system: MDA-MB-231 cells; assay: Cell viability assay (Alamar blue) for drug IC50; settings: single drug, 48 hrs; for half of the IC50 values: concentration added in combination groups
From the text: Another aspect to consider is how to ensure the cells are in a similar state under different categories of drug treatments. To achieve this, we measured the half maximal inhibitory concentration (IC50) of different drugs separately by cell viability assays in 48 hrs, in agreement with the probe culturing time. This method is commonly used in pharmaceutical studies to compare the effect of various products. Besides the experimental operations, data analysis is vital to the obtained large-scale data to map cell phenotypes after drug perturbation. We thus built a complete analytical pipeline for Chemical Painting, including data preprocessing, single-cell segmentation, single-cell biochemical profile extraction and downstream analysis.
Cell viability assay and drug IC50 calculus. The IC50 values of the drugs were determined by Alamar blue assay. Cells were seeded at 10,000 per well in 96-well plates. After 24 h, the cells were washed twice with phosphate buffered saline (PBS) and treated with drugs at different concentrations in cell culture media for 48 hrs. Each drug concentration has 6-8 replicates. After the drug treatments, cells were washed with PBS twice and the cell viability was determined by Alamar blue assay following the manufacturer's protocol (Invitrogen) using plate reader. The IC50 values were determined by fitting the data using a dose response model with variable Hill slope built in Prism.

For `CC(=O)O[C@H]1C(=O)[C@@]2(C)[C@H]([C@H](OC(=O)c3ccccc3)[C@]3(O)C[C@H](OC(=O)[C@H](O)[C@@H](NC(=O)c4ccccc4)c4ccccc4)C(C)=C1C3(C)C)[C@]1(OC(C)=O)CO[C@@H]1C[C@@H]2O` [Taxol], the Prediction [1] was “Novel”, the Mean score [1] was −0.5052 and the Outlier % [1] was 75.26%.

Work on `CCC(=O)CCCCC[C@@H]1NC(=O)[C@H]2CCCCN2C(=O)[C@H]([C@@H](C)CC)NC(=O)[C@H](Cc2cn(OC)c3ccccc23)NC1=O` [Apicidin] yielded a Mean score [1] of −0.5289 and an Outlier % [1] of 76.45%.

With `CC[C@H]1CN2CCc3cc(OC)c(OC)cc3[C@@H]2C[C@@H]1C[C@H]1NCCc2cc(OC)c(OC)cc21` [Emetine, emetine] the Prediction [1] was “Protein”, the Mean score [1] was 0.6208 and the Mean score ([1]; listed as emetine) was “high”. For the same compound, the Outlier % [1] was 18.96%.

In the case of `CC[C@]1(O)C[C@H]2CN(CCc3c([nH]c4ccccc34)[C@@](C(=O)OC)(c3cc4c(cc3OC)N(C=O)[C@H]3[C@@](O)(C(=O)OC)[C@H](OC(C)=O)[C@]5(CC)C=CCN6CC[C@]43[C@@H]65)C2)C1` [Vincristine], the Prediction [1] is reported as “Novel”, the Mean score [1] is reported as −0.9466 and the Outlier % [1] is reported as 97.33%.

For `C[C@@H]1C[C@@H]([C@H](O)CC2CC(=O)NC(=O)C2)C(=O)[C@@H](C)C1` [cycloheximide], the “protein synthesis (13C amide I/(13C amide I+12C amide I))” value (“protein synthesis” below) [2] was “much lower”.

`CCC/C=C/C/C=C/C=C/C=N/NN=O` [triacsin-C, triacsin C] was tested, and the “protein synthesis” value [2] was “remained at a similar level compared with the control group”, the “saturated FA metabolism (azido-PA/CH2)” value [2] was “significant decreases” and the “unsaturated FA metabolism (d34OA/CH2)” value [2] was “significant decreases”.

For `O=C(c1cc(Cc2n[nH]c(=O)c3ccccc23)ccc1F)N1CCN(C(=O)C2CC2)CC1` [olaparib], the “protein synthesis” value [2] was “significantly reduced”, the “saturated FA metabolism (azido-PA/CH2)” value [2] was “significantly reduced” and the “unsaturated FA metabolism (d34OA/CH2)” value [2] was “significantly reduced”.

`NC(=O)c1ccc(I)c([N+](=O)[O-])c1` [Iniparib, iniparib] was tested, and the Prediction [1] was “Novel”, the Mean score [1] was −0.9923 and the Mean score ([1]; listed as iniparib) was “quite negative”. The Outlier % [1] was 99.62%.

With `CO[C@H]1C[C@@H]2CC[C@@H](C)[C@@](O)(O2)C(=O)C(=O)N2CCCC[C@H]2C(=O)O[C@H]([C@H](C)C[C@@H]2CC[C@@H](OCCO)[C@H](OC)C2)CC(=O)[C@H](C)/C=C(\C)[C@@H](O)[C@@H](OC)C(=O)[C@H](C)C[C@H](C)/C=C/C=C/C=C/1C` [everolimus] the “half of the IC50 values” [3] was 14500 nM.

With `COc1cccc2c1C(=O)c1c(O)c3c(c(O)c1C2=O)C[C@@](O)(C(=O)CO)C[C@@H]3O[C@H]1C[C@H](N)[C@H](O)[C@H](C)O1` [doxorubicin, doxorubicin hydrochloride] the “protein synthesis” value [2] was “largely inhibited”, the “saturated FA metabolism (azido-PA/CH2)” value [2] was “largely inhibited” and the “unsaturated FA metabolism (d34OA/CH2)” value [2] was “largely inhibited”.

For `CS(=O)(=O)CCNCc1ccc(-c2ccc3ncnc(Nc4ccc(OCc5cccc(F)c5)c(Cl)c4)c3c2)o1` [lapatinib], the IC50 ([3]; Homo sapiens, MDA-MB-231, cell viability) was 2140 nM and the “half of the IC50 values” [3] was 1120 nM.

In the case of TVB-3166, the “protein synthesis” value [2] is reported as “slightly decreased”, the “saturated FA metabolism (azido-PA/CH2)” value [2] is reported as “significantly reduced” and the “unsaturated FA metabolism (d34OA/CH2)” value [2] is reported as “significantly reduced”.

For `CC(C)C[C@H](NC(=O)[C@H](Cc1ccccc1)NC(=O)c1cnccn1)B(O)O` [bortezomib], the “protein synthesis” value [2] was “more evidently decreased”, the “saturated FA metabolism (azido-PA/CH2)” value [2] was “reduced” and the “unsaturated FA metabolism (d34OA/CH2)” value [2] was “reduced”.

`COc1cccc2c1C(=O)c1c(O)c3c(c(O)c1C2=O)C[C@@](O)(C(C)=O)C[C@@H]3O[C@H]1C[C@H](N)[C@H](O)[C@H](C)O1` [Daunorubicin, Daunorubicin hydrochloride] was tested, and the Prediction [1] was “DNA intercalation”, the Mean score ([1]; hydrochloride) was 0.8497 and the Mean score ([1]; listed as daunorubicin, hydrochloride) was “high”. It also gave an Outlier % [1] of 7.515%.
